Results as given in ChEMBL document CHEMBL4152182, “Recent acquisitions on oxyprenylated secondary metabolites as anti-inflammatory agents” (Eur J Med Chem, 2018).
pIC50: −log10 of the molar value.

Columns and labels:
[1] = tested on: Mus musculus; test: Anti-inflammatory activity in mouse assessed as inhibition of croton oil-induced ear edema at 0.3 umol/cm2 administered topically relative to control; assay type: functional
[2] = tested on: Mus musculus; test: Anti-inflammatory activity in mouse assessed as inhibition of croton oil-induced ear edema at 10 umol/cm2 administered topically relative to control; assay type: functional
[3] = Antitumor activity in mouse adenocarcinoma model at 500 ppm relative to control; assay type: functional
[4] = Antitumor activity in mouse adenocarcinoma model at 100 ppm relative to control; assay type: functional
[5] = tested on: Mus musculus; test: Anti-parkinson's activity in intranigral LPS-induced Parkinson's disease-like C57BL/6 mouse model assessed as protection against dopaminergic neuronal loss in substantia nigra by measuring increase in TH-positive neuronal cells at 19.3 mg/kg, sc once daily for 21 days starting from day 1 post LPS treatment by immunohistochemistry relative to control; assay type: functional
[6] = tested on: Mus musculus; test: Anti-parkinson's activity in intranigral LPS-induced Parkinson's disease-like C57BL/6 mouse model assessed as astrocytes activation at 19.3 mg/kg, sc once daily for 21 days starting from day 1 post LPS treatment by confocal fluorescence microscopic method relative to control; assay type: functional
[7] = tested on: Mus musculus; test: Anti-parkinson's activity in intranigral LPS-induced Parkinson's disease-like C57BL/6 mouse model assessed as inhibition of microglial hyperactivation by measuring IBA1 positive cells at 19.3 mg/kg, sc once daily for 21 days starting from day 1 post LPS treatment by immunohistochemistry relative to control; assay type: functional; details: C57BL/6, sc
[8] = tested on: Mus musculus; test: Anti-parkinson's activity in intranigral LPS-induced Parkinson's disease-like C57BL/6 mouse model assessed as astrocytes activation at 25 mg/kg, sc once daily for 21 days starting from day 1 post LPS treatment by confocal fluorescence microscopic method relative to control; assay type: functional
[9] = tested on: Mus musculus; test: Anti-parkinson's activity in intranigral LPS-induced Parkinson's disease-like C57BL/6 mouse model assessed as protection against dopaminergic neuronal loss in substantia nigra by measuring increase in TH-positive neuronal cells at 25 mg/kg, sc once daily for 21 days starting from day 1 post LPS treatment by immunohistochemistry relative to control; assay type: functional
[10] = tested on: Mus musculus; test: Anti-parkinson's activity in intranigral LPS-induced Parkinson's disease-like C57BL/6 mouse model assessed as inhibition of microglial hyperactivation by measuring IBA1 positive cells at 25 mg/kg, sc once daily for 21 days starting from day 1 post LPS treatment by immunohistochemistry relative to control; assay type: functional; details: C57BL/6, sc
[11] = tested on: RAW264.7; test: Anti-inflammatory activity in mouse RAW264.7 cells assessed as inhibition of LPS-induced NO production; assay type: functional, cell-based
[12] = tested on: Mus musculus; test: Anti-inflammatory activity in mouse assessed as inhibition of carrageenan-induced paw edema at 10 mg/kg preincubated for 5 hrs followed by carrageenan challenge relative to control; assay type: functional
[13] = tested on: RAW264.7; test: Anti-inflammatory activity in mouse RAW264.7 cells assessed as inhibition of LPS-induced iNOS gene expression relative to control; assay type: functional
[14] = tested on: RAW264.7; test: Anti-inflammatory activity in mouse RAW264.7 cells assessed as inhibition of LPS-induced COX-2 gene expression relative to control; assay type: functional
[15] = tested on: Neutrophil; test: Anti-inflammatory activity in human neutrophils assessed as inhibition of fMLP/CB-induced superoxide anion generation; assay type: functional, cell-based

CC(C)=CCOC1=CC(=O)c2ccccc2C1=O
inhibition (INH) [1]: 14%

COc1cc(CO)cc(OC)c1OCC=C(C)C
inhibition (INH) [1]: 31% | inhibition (INH) [2]: 77%

CC(C)=CCOc1ccc(CCCO)cc1
inhibition (INH) [1]: 28% | inhibition (INH) [2]: 68%

C=C(C)CCC/C(C)=C/COc1ccc(/C=C/C(=O)N[C@@H](CCCNC(=N)N[N+](=O)[O-])C(=O)O)cc1OC
Activity [3]: 94% | Activity [4]: 84%

CC(C)=CCOc1ccc2ccc(=O)oc2c1 [7-PRENYLOXYCOUMARIN]
fold change (FC) [5]: 2.2 | Activity [6]: 65.3% | inhibition in vivo at 19.3 mg/kg [7]: 19.1%

CC(C)=CCC/C(C)=C/COc1ccc2ccc(=O)oc2c1 [AURAPTENE]
Activity [8]: 68.4% | fold change (FC) [9]: 2.2 | inhibition in vivo at 25 mg/kg [10]: 39.1%

COc1c(OC/C=C(\C)CCC=C(C)C)ccc2ccc(=O)oc12 [COLLININ]
pIC50 [11]: 5.23

CC(C)=CCOc1ccc(CCO)cc1 [ETROGOL]
inhibition (INH) [1]: 32% | inhibition (INH) [2]: 78%

CC(C)=CCOc1c2occc2cc2ccc(=O)oc12 [PENTOSALEN]
inhibition in vivo at 10 mg/kg [12]: 54.4% | inhibition (INH) [13]: 69.2% | inhibition (INH) [14]: 66.7% | pIC50 [15]: 5.77
